Measured values as given in PMC3799725, “Detection of Active Matriptase Using a Biotinylated Chloromethyl Ketone Peptide” (PLoS ONE, 2013).
Where no end group is shown, it is not given here. The star is where a group is joined. Biotin = O=C1N[C@H]2[C@H](CS[C@H]2CCCCC(=O)*)N1

How the values were obtained:
[1] = tested on: murine matriptase (primary keratinocytes); details: representative of 2 independent experiments; for labeling of matriptase in matriptase-deficient (KO) murine keratinocytes: lysates or pull downs (figure 6 lanes 4-6 and 10-12)
matriptase-HAI-1 complex = test: Reaction with / effect on matriptase-HAI-1 complex in Caco-2 cells (pH 6.0-induced)
matriptase SPD = test: Chromogenic assay: inhibition of matriptase SPD cleavage of S2288; details: representative of 3 independent experiments

| Compound | labeling of matriptase in matriptase-deficient (KO) murine keratinocytes [1] | labeling of matriptase on WT murine keratinocytes by control peptide ([1]; 50 µM control peptide, WT keratinocytes (figure 6 lane 3)) | labeling of matriptase after pH 6.0 pre-treatment (matriptase-HAI-1 complex formed) (matriptase-HAI-1 complex; 50 µM, 30 min at 37°C at pH 7.4 after 30 min pre-treatment at pH 6.0 (figure 4 lane 9)) | labeling of matriptase-HAI-1 complex (matriptase-HAI-1 complex; Caco-2, 50 µM, 30 min at 37°C, conclusion from pH 6.0 pre-treatment) | dissociation of matriptase-HAI-1 complex (matriptase-HAI-1 complex; under the conditions used in the study) | inhibition of peptidolytic activity of matriptase SPD after pre-incubation of inhibitor (matriptase SPD; 5 nM inhibitor pre-incubated 60 min at 37°C, 0.2 nM SPD, Hepes pH 7.4, S2288 300 µM, 405 nm) | inhibition of peptidolytic activity of matriptase SPD (matriptase SPD; 5 nM inhibitor, no pre-incubation (0 min), 0.2 nM SPD, Hepes pH 7.4, 10 min at 37°C, S2288 300 µM, 405 nm) | inhibition of matriptase SPD after pre-incubation of inhibitor (matriptase SPD; 50 µM inhibitor pre-incubated in aqueous solution 180 min at 37°C, 0.2 nM SPD, Hepes pH 7.4, 10 min at 37°C, S2288 300 µM, 405 nm) | inhibition of matriptase SPD cleavage of chromogenic substrate at pH 6.0 (matriptase SPD; 50 µM inhibitor, 20 mM citric acid pH 6.0, 140 mM NaCl, 0.1% BSA, 10 min at 37°C, S2288 300 µM) |
| --- | --- | --- | --- | --- | --- | --- | --- | --- | --- |
| O=C(CCCC[C@@H]1SC[C@@H]2NC(=O)N[C@@H]21)NCCSSCCC(=O)ON1C(=O)CC(S(=O)(=O)[O-])C1=O.[Na+] (some centres unmarked) [S-NHS-SS-biotin] | No matriptase could be detected in lysates or pull downs |  |  |  |  |  |  |  |  |
| Biotin-RQRR [biotin-RQRR] | No matriptase could be detected in lysates or pull downs | No matriptase was detected |  |  |  |  |  |  |  |
| biotin-Arg-Gln-Arg-Arg-chloromethyl ketone | No matriptase could be detected in lysates or pull downs |  | but not when the cells had been exposed to pH 6.0 for 30 min | matriptase-HAI-1 complex is not labeled | not able to dissociate the matriptase-HAI-1 complex | fully inhibiting the peptidolytic activity | fully inhibiting the peptidolytic activity | still sufficient to efficiently inhibit the activity | no cleavage of the substrate was observed |
